Measurements reported in patent US8722681B2, “N-sulfonyl thiazolylpiperazine derivatives and related N-sulfonyl heterocyclic derivatives for the treatment of neuro degenerative diseases” (NV reMYND, priority 2007, dated 2014).

Test system: M17-SYNwt cells
Assay: α-synuclein cytotoxicity assay (LDH leakage from paraquat-treated M17-SYNwt cells)
Type: cell-based, human
Conditions: Table 2; for EC50: M17-SYNwt cells, paraquat 32 mM, 40 hours, LDH activity; for % inh. (percentage inhibition): inhibition of synuclein toxicity at most effective concentration relative to untreated paraquat cells
Excerpt: An α-synuclein expression plasmid was constructed by sub-cloning the NcoI/XhoI fragment from 212T-SYN(WT) (Griffioen et al., Biochem Biophys Acta (2006) 1762(3):312-318) containing the cDNA of human wild type α-synuclein correspondingly into a standard mammalian expression vector pcDNA3.1 resulting in plasmid pcDNA3.1-SYNwt. Plasmid pcDNA3.1 and pcDNA3.1-SYNwt were transfected to human neuroblastoma cells (ATCC No. CRL-2267) and independent clonal lines with the plasmids stably integrated into the genome were selected. […] Over-expression of α-synuclein in M17-SYNwt cell lines was confirmed by Western analysis.
Due to the high levels of α-synuclein M17-SYNwt cells are exquisitely sensitivity to paraquat, a well-known risk factor of synuclein-dependent neuronal degeneration. In degenerated or dead cells lactate dehydrogenase (LDH) is leaked out of the cells into the extracellular environment due to a loss of plasma-membrane integrity. This principle was used to determine cytotoxicity by quantifying the level of leaked LDH into the growth medium.
The detailed method for determining α-synuclein cytotoxicity was as follows: From appropriate precultures of M17 and M17-SYN cells were seeded at 50000 cells/cm^2 in Optimem Reduced Serum without phenol red (InVitrogen, Cat. 31985-047) supplemented with 5% fetal calf serum, 1 mM sodium pyruvate, 1×non-essential amino acids, 500 μg/ml G418 0.5×antibiotic/antimycotic. After 3 hours of incubation at 37° C./5% CO2 paraquat was added to the cells (final concentration of 32 mM), together with the test compound and the cells were further incubated for 40 hours. Subsequently, LDH activity was determined using Promega Cytotox 96 Non-Radioactive cytotoxicity assay, (Cat. G1780) according the supplier's instructions.
This α-synuclein expressing neuroblastoma cells made it possible to assess the ability of novel compounds to counteract α-synuclein cytotoxicity. […] Since this method monitors leaked LDH from degenerated or dead cells only non-toxic compounds will be identified as active inhibitors of α-synuclein-mediated cytotoxicity. Lack of toxicity is an important characteristic for compounds to be used as a medicament to patients in need. A compound was considered to be active in this test when it inhibits α-synuclein cytotoxicity by more than 25% relative to untreated M17-SYNwt cells at a concentration of 20 μg/mL or lower. In the experiments, the control group consisted of M17-SYNwt cells treated with DMSO, the untreated paraquat group consisted of M17-SYNwt cells treated with paraquat and DMSO, and the treated paraquat group consisted of M17-SYNwt cells treated with paraquat and the test compound dissolved in DMSO.
Percent inhibition was calculated as the synuclein toxicity inhibition by the compound in treated paraquat cells, relative to the synuclein cytotoxicity in untreated paraquat cells.
The compounds from table 1 were screened for activity using the α-synuclein cytotoxicity assay as described above. Dose responses were carried out on all compounds found to be active (10 point curves in duplicate).

| Structure (SMILES) | EC50 (Homo sapiens) | % inh. (percentage inhibition) | EC50 |
| --- | --- | --- | --- |
| COC(=O)COc1ccc(S(=O)(=O)N2CCN(c3nc(-c4ccc(C)cc4)cs3)CC2)cc1 [Compound 33, Methyl 2-(4-(4-(4-p-tolylthiazol-2-yl)piperazin-1-ylsulfonyl)phenoxy)acetate] | 51.6 nM | 21% | – |
| CC(=O)NCCc1ccc(S(=O)(=O)N2CCN(c3nc(-c4ccccc4)cs3)CC2)cc1 [Compound 34, N-(4-(4-(4-phenylthiazol-2-yl)piperazin-1-ylsulfonyl)phenethyl)acetamide] | 3090 nM | 46% | – |
| COc1cccc(-c2csc(N3CCN(S(=O)(=O)c4ccc(F)cc4)CC3)n2)c1 [Compound 35, 1-(4-fluorophenylsulfonyl)-4-(4-(3-methoxyphenyl)thiazol-2-yl)piperazine] | – | 90% | 216 nM |
| COc1ccc(OC)c(S(=O)(=O)N2CCN(c3nc(-c4ccccc4)cs3)CC2)c1 [Compound 36, 1-(2,5-dimethoxyphenylsulfonyl)-4-(4-phenylthiazol-2-yl)piperazine] | 950 nM | 121% | – |
| COc1ccc(OC)c(S(=O)(=O)N2CCN(c3nc(-c4ccc(Cl)cc4)cs3)CC2)c1 [Compound 37, 1-(4-(4-chlorophenyl)thiazol-2-yl)-4-(2,5-dimethoxyphenylsulfonyl)piperazine] | 1290 nM | 74% | – |
| COc1ccc(-c2csc(N3CCN(S(=O)(=O)c4ccc(OC)c(OC)c4)CC3)n2)cc1 [Compound 38, 1-(3,4-dimethoxyphenylsulfonyl)-4-(4-(4-methoxyphenyl)thiazol-2-yl)piperazine] | 1060 nM | 65% | – |
| COc1ccc(-c2csc(N3CCN(S(=O)(=O)c4cc(OC)ccc4OC)CC3)n2)cc1 [Compound 39, 1-(2,5-dimethoxyphenylsulfonyl)-4-(4-(4-methoxyphenyl)thiazol-2-yl)piperazine] | 6750 nM | 107% | – |
| Cc1ccc(S(=O)(=O)N2CCN(c3nc(-c4ccccc4)cs3)CC2)cc1 [Compound 44, 1-(4-phenylthiazol-2-yl)-4-tosylpiperazine] | 197 nM | 72% | – |
| COc1ccc(S(=O)(=O)N2CCN(Cc3nc(-c4ccc(F)cc4)cs3)CC2)cc1 [Compound 47, 1-((4-(4-fluorophenyl)thiazol-2-yl)methyl)-4-(4-methoxyphenylsulfonyl)piperazine] | 39.9 nM | 86% | – |
| COc1ccc(S(=O)(=O)N2CCC(c3nc(-c4ccc(F)cc4)cs3)CC2)cc1 [Compound 48, 4-(4-(4-fluorophenyl)thiazol-2-yl)-1-(4-methoxyphenylsulfonyl)piperidine] | 49.4 nM | 90% | – |
| COc1ccc(S(=O)(=O)N2CCN(c3nc(-c4ccncc4)cs3)CC2)cc1 [Compound 49, 1-(4-methoxyphenylsulfonyl)-4-(4-(pyridin-4-yl)thiazol-2-yl)piperazine] | 75 nM | 114% | – |
| COc1ccc(F)cc1S(=O)(=O)N1CCN(c2nc(-c3ccc(C)cc3)cs2)CC1 [Compound 50, 1-(5-fluoro-2-methoxyphenylsulfonyl)-4-(4-(4-methylphenyl)thiazol-2-yl)piperazine] | 1770 nM | 104% | – |
| COc1cc(F)ccc1S(=O)(=O)N1CCN(c2nc(-c3ccc(C)cc3)cs2)CC1 [Compound 51, 1-(4-fluoro-2-methoxyphenylsulfonyl)-4-(4-(4-methylphenyl)thiazol-2-yl)piperazine] | 2500 nM | 88% | – |
| O=S(=O)(c1cccnc1)N1CCN(c2nc(-c3ccc(F)cc3)cs2)CC1 [Compound 54, 1-(4-(4-fluorophenyl)thiazol-2-yl)-4-(pyridin-3-ylsulfonyl)piperazine] | 1230 nM | 91% | – |
| Cc1n[nH]c(C)c1S(=O)(=O)N1CCN(c2nc(-c3ccc(F)cc3)cs2)CC1 [Compound 55, 1-(4-(4-fluorophenyl)thiazol-2-yl)-4-(3,5-dimethyl-1H-pyrazol-4-ylsulfonyl)piperazine] | 657 nM | 91% | – |
| O=S(=O)(c1ccc(Cl)s1)N1CCN(c2nc(-c3ccccc3)cs2)CC1 [Compound 56, 1-(5-chlorothiophen-2-ylsulfonyl)-4-(4-phenylthiazol-2-yl)piperazine] | 752 nM | 98% | – |
| COc1ccc(-c2csc(N3CCN(S(=O)(=O)c4cccs4)CC3)n2)cc1 [Compound 57, 1-(thiophen-2-ylsulfonyl)-4-(4-(4-methoxyphenyl)thiazol-2-yl)piperazine] | 721 nM | 88% | – |
| O=S(=O)(c1cccs1)N1CCN(c2nc(-c3ccc(Cl)cc3)cs2)CC1 [Compound 58, 1-(thiophen-2-ylsulfonyl)-4-(4-(4-chlorophenyl)thiazol-2-yl)piperazine] | 3750 nM | 99% | – |
| O=[N+]([O-])c1ccc(-c2csc(N3CCN(S(=O)(=O)c4cccs4)CC3)n2)cc1 [Compound 60, 1-(thiophen-2-ylsulfonyl)-4-(4-(4-nitrophenyl)thiazol-2-yl)piperazine] | 1240 nM | 79% | – |
| O=S(=O)(N1CCCC1)N1CCN(c2nc(-c3ccccc3)cs2)CC1 [Compound 61, 1-(4-phenylthiazol-2-yl)-4-(pyrrolidin-1-ylsulfonyl)piperazine] | 1740 nM | 127% | – |
| Cc1ccc(-c2csc(N3CCN(S(=O)(=O)N4CCCC4)CC3)n2)cc1 [Compound 62, 1-(4-(4-methylphenyl)thiazol-2-yl)-4-(pyrrolidin-1-ylsulfonyl)piperazine] | 1930 nM | 112% | – |
| COc1ccc(-c2csc(N3CCN(S(=O)(=O)N4CCCC4)CC3)n2)cc1 [Compound 63, 1-(4-(4-methoxyphenyl)thiazol-2-yl)-4-(pyrrolidin-1-ylsulfonyl)piperazine] | 3180 nM | 69% | – |
| O=S(=O)(c1ccc2c(c1)OCCO2)N1CCN(c2nc(-c3ccccc3)cs2)CC1 [Compound 69, 1-(2,3-dihydrobenzo[b][1,4]dioxin-6-ylsulfonyl)-4-(4-phenylthiazol-2-yl)piperazine] | 434 nM | 89% | – |
| COc1ccc(-c2csc(N3CCN(S(=O)(=O)c4ccc5c(c4)OCCO5)CC3)n2)cc1 [Compound 70, 1-(2,3-dihydrobenzo[b][1,4]dioxin-6-ylsulfonyl)-4-(4-(4-methoxyphenyl)thiazol-2-yl)piperazine] | 1960 nM | 83% | – |
| O=[N+]([O-])c1ccc(-c2csc(N3CCN(S(=O)(=O)c4ccc5c(c4)OCCO5)CC3)n2)cc1 [Compound 71, 1-(2,3-dihydrobenzo[b][1,4]dioxin-6-ylsulfonyl)-4-(4-(4-nitrophenyl)thiazol-2-yl)piperazine] | 1440 nM | 77% | – |
| O=[N+]([O-])c1cccc(-c2csc(N3CCN(S(=O)(=O)c4ccc5c(c4)OCCO5)CC3)n2)c1 [Compound 72, 1-(2,3-dihydrobenzo[b][1,4]dioxin-6-ylsulfonyl)-4-(4-(3-nitrophenyl)thiazol-2-yl)piperazine] | 23500 nM | 85% | – |
| O=S(=O)(c1cccc2nonc12)N1CCN(c2nc(-c3ccc(F)cc3)cs2)CC1 [Compound 74, 4-(4-(4-(4-fluorophenyl)thiazol-2-yl)piperazin-1-ylsulfonyl)benzo[c][1,2,5]oxadiazole] | 233 nM | 41% | – |
| O=S(=O)(c1ccc2ccccc2c1)N1CCN(c2nc(-c3ccc(Cl)cc3)cs2)CC1 [Compound 75, 1-(4-(4-chlorophenyl)thiazol-2-yl)-4-(naphthalen-2-ylsulfonyl)piperazine] | 870 nM | 84% | – |
| COc1ccccc1-c1csc(N2CCN(S(=O)(=O)c3cccc4c3ccn4C)CC2)n1 [Compound 77, 4-(4-(4-(2-methoxyphenyl)thiazol-2-yl)piperazin-1-ylsulfonyl)-1-methyl-1H-indole] | 257 nM | 69% | – |
